Patent publication US20070026431A1, “Modulation of MAPK-mediated phosphorylation and/or FBXW8-mediated ubiquitinylation of cyclin D1 in modulation of cellular proliferation” (priority 2005, published 2007)
“Also recorded” adds a separate entry of the source.

Tests used:
[1] = system: cyclin D1 protein (Thr286 phosphorylation); assay: Western blot of total cyclin D1 and pThr286 in HCT 116 cells after U0126 or GSK3 inhibitor; format: cell-based, human; conditions: cycling HCT 116; GSK3α/β inhibitor 24 hours
Description: (§1) FIG. 11 illustrates that ERK/MAPK is identified as the major kinase that is responsible for the stability of cyclin D1 protein. Panels A-F: Pulse-chase analysis of cyclin D1 protein in HCT 116 cells after exposure to the MEK inhibitor U0126 (A-C) or the GSK3 inhibitor BIO (D-F). Exponentially growing HCT 116 cells were treated with either DMSO or 10 μM of U0126 (A-C) for 30 minutes, or DMSO or 5 μM of BIO (D-F) for 24 hours. Panels A and D: Cells were pulse-labeled with ^35S-methionine for 1 hour. Subsequently these cells were chased with cold methionine for the indicated times, and then lysed respectively. Cyclin D1 was immunoprecipitated and then analyzed with SDS-PAGE. Autoradiography was performed. Levels of metabolically labeled-cyclin D1 were estimated by quantitative scanning using the Quantity One (Bio-Rad) software and blotted on the graph to determine the half-life of cyclin D1. Panels B and E: Western blot analysis. The membrane was blotted with a cyclin D1 Thr286 phosphorylation specific (pThr286), total cyclin D1, a phosphorylation specific ERK, and total ERK antibodies (B), or a pThr286, cyclin D1, a GSKα/β phosphorylation specific, and GSK3β antibodies (E). Panels C and F: Cell cycle distributions were shown. Panel G: Western blot analysis following transfection of various forms of HA-tagged cyclin D1 expression vectors in both NIH 3T3 mouse fibroblast (left) and HCT 116 colon cancer (right) cells. In lane 5 and 10, cells were treated with 5 μM of BIO for further 24 hours following transfection of the ΔD CD1 mutant.
(§2) Immunoblotting Analysis. […] SDS-PAGE was described previously (Tetsu and McCormick, 2003).
To determine the contribution of ERK/MAPK to the stability of cyclin D1 in cancer cells, MAPK activity was inhibited with the MEK inhibitor U0126 (Favata et al., 1998. J Bio Chem. 273, 18623-32; Davies et al., 2000. Biochem J. 351, 95-105). Exponentially growing HCT 116 colon cancer cells were treated with U0126 for 30 minutes (FIG. 11, Panels A-C).
In contrast, no effect on phosphorylation status and stability of cyclin D1 protein through inhibition of GSK3α/β ([…], Panels D-F) were detected. […] Cycling HCT 116 colon cancer cells were treated with BIO for 24 hours (FIG. 11, Panels D-F). A phosphorylation specific antibody to GSK3α and β was used to measure their endogenous activities because phosphorylations of GSK3α at Tyr279 and GSK3β at Tyr216 are intramolecular autophosphorylation events in the cells. Thus, phosphorylation status reflects their kinase activities (Cole et al., 2004. Biochem J. 377, 249-55).

GSK3α/β = assay: Phosphorylation-specific blot for GSK3α/β, HCT 116 cells; format: cell-based, human; conditions: BIO 24 hours
Description: as §1, with “Panel G: Western blot analysis following transfection of various forms of HA-tagged cyclin D1 expression vectors in both NIH 3T3 mouse fibroblast (left) and HCT 116 colon cancer (right) cells. In lane 5 and 10, cells were treated with 5 μM of BIO for further 24 hours following transfection of the ΔD CD1 mutant.” left out
In contrast, no effect on phosphorylation status and stability of cyclin D1 protein through inhibition of GSK3α/β (FIG. 14, Panels D-F) were detected. […]

[2] = system: cyclin D1 Thr286 phosphorylation; assay: Thr286 phosphorylation of transfected ΔD cyclin D1 after BIO, NIH 3T3 cells; format: cell-based, mouse; conditions: 5 μM BIO 24 hours after transfection
Excerpt: FIG. 9 illustrates that MAPK directly binds to cyclin D1 through the MAPK docking site (D-domain) within cyclin D1 and phosphorylates it specifically at Thr286. Panel A: p42 ERK2-associated GST-cyclin D1 (CD1) in vitro kinase assays (upper panels). Purified ERK2 phosphorylates cyclin D1 in vitro. Immuno-blotting (IB) analyses stained with a GST antibody (lower panels) were provided as a reference to show loading conditions of various forms of GST-CD1 fusion proteins. (A) GST alone (lane 1), GST-human (h) CD1 amino acids (A.A.) from 165 to 295 (165-295, lane 2), GST-human (h) or mouse (m) CD1 A.A. from 255 to 295 (255-295, lane 3 and 4) were used. Panel B: Western blot analysis following transfection of various forms of HA-tagged cyclin D1 expression vectors in both NIH 3T3 mouse fibroblast (left) and HCT 116 colon cancer (right) cells. In lane 5 and 10, Cells were treated with 5 μM of a highly specific GSK3β inhibitor BIO for further 24 hours following transfcetion of the ΔD CD1 mutant.
FIG. 11 illustrates that ERK/MAPK is identified as the major kinase that is responsible for the stability of cyclin D1 protein. […] Cyclin D1 was immunoprecipitated and then analyzed with SDS-PAGE. […] Levels of metabolically labeled-cyclin D1 were estimated by quantitative scanning using the Quantity One (Bio-Rad) software and blotted on the graph to determine the half-life of cyclin D1. […]

[3] = system: cyclin D1 protein (Thr286 phosphorylation); assay: Western blot of cyclin D1 and p-Thr286 cyclin D1 in HA-CD1 SW480 cells treated with kinase inhibitors; format: cell-based, human; conditions: HA-WT CD1 SW480 cells; 24 hours of treatment
Description: Immunoblot analysis was performed. […] Asterisks indicate endogenous cyclin D1 expression. Panel B: Western blot analysis with fractionated nuclear proteins. […] Cell-cycle distribution was shown as bar graphs. Nuclear proteins were fractionated at indicated time points. […] Levels of total and phosphorylated cyclin D1 were determined.
as §2
To identify the kinase responsible for cyclin D1 Thr286 phosphorylation, small molecule inhibitors of GSK3β, CDK4, and MEK were used to determine whether they were able to alter the phosphorylation and stability of ectopically expressed WT cyclin D1 protein in cultured cells (FIG. 5, Panels C and D). Ectopically expressed WT cyclin D1 protein was used to assess the stability of cyclin D1 protein. The endogenous expression was not assessed because transcription of cyclin D1 is regulated by the Ras/MAPK signaling. Therefore, endogenous expression of cyclin D1 is unable to be detected following inhibition of MAPK activities through the MEK/MAPK inhibitors or serum starvation (Tetsu et al., 2003. Cancer Cell. 3, 233-45).

O=C1Nc2cc(Br)ccc2/C1=C1/Nc2ccccc2/C1=N\O [BIO]
expression of total cyclin D1 and its phosphorylated protein [1]: no significant difference | phosphorylated forms of GSK3α/β (GSK3α/β): disappeared | phosphorylation status of cyclin D1 at Thr286 (ΔD mutant) [2]: slight change; also recorded: reduction | total cyclin D1 expression and its phosphorylated protein [3]: no significant difference
